According to patent US20220168261A1, “COMPOUNDS AND METHODS FOR MANAGING CANCER THROUGH IMMUNE SYSTEM” (AKAMARA THERAPEUTICS, INC., priority 2019, published 2022):

What was measured:
[1] = tested on: 4T1 cells; assay: Intracellular distribution of platinum and intact drug in 4T1 cells (AAS, RPHPLC); type: cell-based; settings: 50 μM
Procedure: The remaining insoluble proteins were resuspended in RIPA lysis buffer. The leftover genomic DNA (gDNA) pellet was treated with methanol to dissociate any non-covalently bound platinum from the gDNA. All the fractions were assayed by atomic absorption spectroscopy (AAS) to determine their Pt content. […] Data was generated from three independent biological experiments and error represents standard error of mean.

[2] = tested on: 4T1 tumors; assay: 4T1 breast tumors in mice in vivo; design: species or system BALB/c mice
[3] = tested on: Lewis lung carcinoma; assay: Immunocompetent Lewis lung carcinoma model; type: in vivo, mice
Source text: This model was therefore used to test whether the activation of both T cells, using a PD1 inhibitor, and B cells, using Compound 1, results in synergy. In this experiment, four groups of mice models for immunocompetent Lewis lung carcinoma were utilized. The mice were, independently, intravenously treated with control, Compound 1, anti-PD-1, or Compound 1+ anti-PD-1 and tumor growth monitored for at least 28 days post-tumor induction. The following table describes the treatments utilized in the experiment.

[4] = tested on: 4T1 cells; assay: CMTR2 levels in 4T1 cells upon treatment; type: cell-based
Source text: (§1) Cap-specific mRNA (nucleoside-2′-O-)-methyltransferase 2 (CMTR2) is an enzyme that methylates at the 2′-O position of the second transcribed nucleotide of mRNAs.
Alternatively, the unmethylated mRNA could also be recognized by toll-like receptors (TLR) like TLR3. Both of these would trigger many interferon regulatory factors (IRFs) leading to a type-I interferon antiviral response. The interferons can induce interferon stimulated genes (ISGs) such as interferon induced tetratricopeptide repeat protein 1 (IFIT1), which binds to unmethylated mRNA with high affinity. Furthermore, the immune system would be activated by the interferons. Additionally, the unmethylated mRNA could be secreted out from the tumor cells resulting in B-cell activation.

[5] = tested on: 4T1 cells; assay: Interferon pathway / anti-viral response in 4T1 cells (RT-q-PCR, iBlot); type: cell-based
Procedure: RT-q-PCR was performed with RNA extracted from 4T1 cells treated with 30 μM of Compound 1 or vehicle for 24 h. […] The result is representative of n=3.
See, FIG. 16. The unmethylated mRNA generated due to inhibition of CMTR2 activity leads to recognition by sensors like MDA5 and TLR3 in conjunction with adapters like TRIF.

[6] = Pharmacokinetics after single i.v. bolus in tumor bearing mice; type: in vivo, female Balb/c mice; settings: plasma, LC-MS/MS, noncompartmental analysis
Procedure: The pharmacokinetic (PK) profile of Compound 1 was evaluated following single intravenous (i.v bolus) dosing in tumor bearing female Balb/c mice. Tumor and plasma samples were collected at various time points, sparse sampling (n=3). Plasma concentrations were determined using LC-MS/MS and later subjected to Phoenix WinNonlin Noncompartmental analysis and PK parameters were estimated.

[7] = Single dose toxicity study in rats; type: in vivo; settings: for ALP (Hepatic), Mean / ALT (Hepatic), Mean / AST (Hepatic), Mean / Creatinine (Renal), Mean / Hemoglobin (Anemia), Mean / Neutrophil (Neutropenia), Mean / Platelet (Thrombocytopenia), Mean: rat, in vivo
Procedure: Further, Compound 1 was also tested for safety end point evaluation in rats. […] Doses of 44 mg/kg, 88 mg/kg and 176 mg/kg were tested and 176 mg/kg was LTD.

[8] = target: T1, CMTR2 (Mus musculus, UniProt Q8BWQ4); assay: Binding of CMTR2 to Compound 1 by ELISA
T1 construct: endogenous in cells; host or cells: 4T1 cells (lysate)
T1 sequence (Q8BWQ4 1-767): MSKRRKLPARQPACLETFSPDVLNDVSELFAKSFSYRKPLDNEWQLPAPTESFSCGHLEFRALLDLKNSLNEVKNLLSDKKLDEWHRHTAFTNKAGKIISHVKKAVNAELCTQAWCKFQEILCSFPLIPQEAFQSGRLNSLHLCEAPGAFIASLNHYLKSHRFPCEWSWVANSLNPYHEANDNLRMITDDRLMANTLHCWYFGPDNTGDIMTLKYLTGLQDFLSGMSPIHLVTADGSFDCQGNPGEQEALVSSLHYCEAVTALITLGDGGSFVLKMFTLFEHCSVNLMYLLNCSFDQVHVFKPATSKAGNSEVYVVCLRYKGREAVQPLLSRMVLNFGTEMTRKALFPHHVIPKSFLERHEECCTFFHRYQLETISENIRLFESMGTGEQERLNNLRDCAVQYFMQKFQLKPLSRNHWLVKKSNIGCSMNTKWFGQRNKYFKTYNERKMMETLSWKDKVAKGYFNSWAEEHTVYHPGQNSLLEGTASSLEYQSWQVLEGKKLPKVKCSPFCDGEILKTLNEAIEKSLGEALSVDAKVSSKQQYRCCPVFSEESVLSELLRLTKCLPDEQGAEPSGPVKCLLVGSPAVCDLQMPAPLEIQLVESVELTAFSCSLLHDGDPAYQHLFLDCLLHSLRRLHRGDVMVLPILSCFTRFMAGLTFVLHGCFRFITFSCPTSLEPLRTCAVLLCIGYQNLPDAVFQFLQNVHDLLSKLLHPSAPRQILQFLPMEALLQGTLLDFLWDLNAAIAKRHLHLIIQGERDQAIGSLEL
Source text: as §1

[9] = target: T1, CMTR2; assay: Proteomics target identification (anti-cholesterol IP and chemical pulldown) from 4T1 lysate; type: binding
Procedure: as §1
In this example, two different proteomics approach were used to identify the target of Compound 1: (i) an anti-drug antibody (binds to cholesterol in Compound 1) and (ii) Compound A-1, where both (i) and (ii) were used to precipitate targets from 4T1 lysates. The 4T1 cell lysate was treated with pegylated Compound 1 for 20 hours. The 4T1 cells lysate was, independently, combined with the proteins of Table A or treated with Compound 1 and then combined with the proteins of Table A. Precipitated proteins were digested into peptides and identified using LC-MS/MS. Table A provides a summary of the proteins identified from both approaches that were enriched in Compound 1 samples above the background.

[10] = tumors regressed by 20% on day three

SMILES: CC(C)CCC[C@@H](C)[C@H]1CCC2C3CC=C4C[C@@H](OCCN(CC(=O)[O-])CC(=O)[O][Pt+]5[NH][C@@H]6CCCC[C@H]6[NH]5)CC[C@]4(C)C3CC[C@@]21C (stereo partly drawn) [Compound 1]
- Intracellular integrity (intact concentration by RPHPLC vs platinum by AAS) [1]: remains intact intracellularly
- 4T1 tumor ablation in mice lacking B cells ([2]; 88 mg/kg, 2 cycles, T and B-cell knockout (SCID) mice, FIG. 26): 4T1 tumor ablation does not happen in mice lacking B cells
- Tumor growth following re-implantation of cancer cells ([2]; 88 mg/kg, 2 cycles, animals with previous tumor regression, FIG. 27): No tumor growth occurs
- Tumor growth inhibition with increasing doses ([2]; 4T1 breast cancer-bearing mice, FIG. 10): clear dose-dependent effect
- Infiltrating immune cells in tumor sections (immunohistology) ([2]; 50% regressed tumors): increased IGKC levels, and increased infiltration of memory B cells (CD20+) and plasma B cells (CD138)
- B cell biomarker transcripts IGKC and CD21 in tumor (RTPCR) ([2]; FIGS. 8B to 8E): increase in IGKC and CD21
- CD8a in tumor (RTPCR) ([2]; FIGS. 8B to 8E): increase in CD8a cells
- 4T1 tumor growth ([2]; administered on days 1, 2, 6, and 7, female Balb/c mice): ablated 4T1 tumors
- Body weight ([2]; administered on days 1, 2, 6, and 7, up to 29 days post-implantation): without any loss in body weight
- Tumor size of established 4T1 tumors ([2]; cumulative dose of 176 mg/kg per cycle, 2 cycles, immunocompetent syngeneic BALB/c mice): tumor regression is observed
- % B-cell in tumor by FACS ([2]; day 3): infiltrating the tumor
- IFIT1 levels in plasma (dot-blot) ([2]; days 3, 4, 5, and 8): elevated on days 3 to 8
- INF-α levels in plasma (dot-blot) ([2]; days 3, 4, 5, and 8): elevated in plasma
- B cell phenotype by FACS in draining lymph node and spleen ([2]; post-regression, spleen following rechallenge): increase in B cells with a reduction in Bregs
- Tumor growth post rechallenge with cancer cells (immune memory) ([2]; reinjected with 4T1 cells twenty-five days post-regression, no additional treatment): absence of any tumor growth
- IFN gene expression in 4T1 tumors [2, 10]: robust increase in expression
- IRF3 and IRF7 gene expression in 4T1 tumors [2, 10]: increased expression is observed for IRF3 and IRF7
- Tumor growth ([3]; different dose regimens, compared with a MTD dose of oxaliplatin): significant tumor growth inhibition
- CD8a levels (immuno-transcripts) ([3]; mouse, in vivo): no increase was seen in CD8a levels
- Combination effect with PD1 immune checkpoint inhibitor ([3]; mouse, in vivo): synergizes with PD1 immune checkpoint inhibitor
- IGKC signal (immuno-transcripts) ([3]; mouse, in vivo): increase in IGKC signal
- CMTR2 level in 4T1 cell lysate [4]: dose-dependent upregulation of CMTR2
- mRNA expression of TLRs, IRF7 and IFN genes ([5]; 30 μM, 24 h, RT-q-PCR, n=3): robust increase in expression
- Secreted (extracellular) INF-α levels ([5]; iBlot, FIG. 19A-19B): remarkably high
- Intracellular INF-α levels ([5]; iBlot, FIGS. 18A-18B): significantly elevated
- Innate anti-viral response (relative mRNA expression INF-α, IRF7, TRIF, TLR3) ([5]; varying concentration, FIG. 16): activation of the innate anti-viral response in a dose-dependent manner
- IRF7 levels ([5]; varying concentrations, FIG. 17): increased levels in 4T1 cells in a dose-dependent manner
- Estimated AUC versus dose [6]: increased linearly with dose
- Tolerability of the remaining doses ([7]; 44 mg/kg and 88 mg/kg, single intravenous infusion (30 min)): well tolerated without any significant clinical signs
- ALP (Hepatic), Mean ([7]; 44 mg/kg): 107.60 U/L
- ALT (Hepatic), Mean ([7]; 44 mg/kg): 30.00 U/L
- AST (Hepatic), Mean ([7]; 44 mg/kg): 110.60 U/L
- Creatinine (Renal), Mean ([7]; 44 mg/kg): 0.49 mg/dL
- Hemoglobin (Anemia), Mean ([7]; 44 mg/kg): 15.84 g/dL
- Neutrophil (Neutropenia), Mean ([7]; 44 mg/kg): 0.72 × 10^3 cells/μL
- Platelet (Thrombocytopenia), Mean ([7]; 44 mg/kg): 1201.2 × 10^3 cells/μL
- ALP (Hepatic), Mean ([7]; 88 mg/kg): 133.00 U/L
- ALT (Hepatic), Mean ([7]; 88 mg/kg): 25.60 U/L
- AST (Hepatic), Mean ([7]; 88 mg/kg): 106.00 U/L
- Creatinine (Renal), Mean ([7]; 88 mg/kg): 0.49 mg/dL
- Hemoglobin (Anemia), Mean ([7]; 88 mg/kg): 14.92 g/dL
- Neutrophil (Neutropenia), Mean ([7]; 88 mg/kg): 0.80 × 10^3 cells/μL
- Platelet (Thrombocytopenia), Mean ([7]; 88 mg/kg): 1376.2 × 10^3 cells/μL
- ALP (Hepatic), Mean ([7]; 176 mg/kg): 209.5 U/L
- ALT (Hepatic), Mean ([7]; 176 mg/kg): 42.50 U/L
- AST (Hepatic), Mean ([7]; 176 mg/kg): 141.50 U/L
- Creatinine (Renal), Mean ([7]; 176 mg/kg): 0.52 mg/dL
- LTD ([7]; single intravenous infusion (30 min), both genders): 176 mg/kg
- Binding of CMTR2 by ELISA [8]: confirmed by ELISA
- False discovery rate of CMTR2 as lead putative target ([9]; LC-MS/MS of proteins precipitated from 4T1 lysates): less than 1%
- Binding to CMTR2 by proteomics ([9]; anti-cholesterol IP and chemical pulldown, 4T1 cell lysate): binds to CMTR2
